Results as given in patent US7973055B2, “Crystalline forms of a biphenyl compound” (Theravance, Inc., priority 2006, dated 2011).
Where a name gives a salt, the structure may show the parent alone.

How the values were obtained:
[1] = Dynamic moisture sorption (DMS) assessment; type: physicochemical; details: for weight gain when exposed to up to 90% relative humidity / level of hygroscopicity: DMS; for weight gain when exposed to up to 90% relative humidity: up to 90% RH; for deliquescence: exposed to up to 90% relative humidity
Description: A dynamic moisture sorption (DMS) assessment (also known as a moisture sorption-desorption profile) was performed for samples of a crystalline hemiedisylate (prepared as described in Example 2) and a heminapadisylate (prepared as described in Example 5) salt using a VTI atmospheric microbalance, SGA-100 system (VTI Corp., Hialeah, Fla. 33016). A sample size of approximately 10 mg was used and the humidity was set at the ambient value at the start of the analysis. A typical DMS analysis consisted of three scans: ambient to 2% relative humidity (RH), 2% RH to 90% RH, 90% RH to 5% RH at a scan rate of 5% RH/step. The mass was measured every two minutes and the RH was changed stepwise to the next value (+/−5% RH) when the mass of the sample was stable to within 0.02% for 5 consecutive points.

[2] = 5° C./min
Description: Differential scanning calorimetry (DSC) was performed using a TA Instruments Model Q-10 module with a Thermal Analyst controller. Data were collected and analyzed using TA Instruments Thermal Solutions software. A sample of about 1 mg was accurately weighed into an aluminum pan with lid. The sample was evaluated using a linear heating ramp of 5° C./min from ambient temperature to approximately 300° C. The DSC cell was purged with dry nitrogen during use.

[3] = 0.2 mg/mL freebase equivalents in 10 mM citrate buffered normal saline, pH 4.5; one month at 40° C./75% RH
Description: A solution was prepared with 0.2 mg/mL freebase equivalents (using a crystalline heminapadisylate salt prepared as described in Example 5) in 10 mM citrate buffered normal saline, pH 4.5. Less than 0.5% degradation was observed after storage for one month at 40° C./75% RH.

[4] = Solid state stability assessment (HPLC); details: about 1 month at 40° C. and 75% RH
Description: These stock solutions were diluted to 1 mg/mL in 10% ACN for injection onto the HPLC.

Structure (SMILES) | weight gain when exposed to up to 90% relative humidity [1] | no thermal decomposition below (DSC trace) [2] [°C] | further results
CN(CCN1CCC(OC(=O)Nc2ccccc2-c2ccccc2)CC1)C(=O)c1cccc(C(=O)NCCNCc2ccc(O)cc2)c1 [crystalline diacetate salt] | less than 18% | – | –
CN(CCN1CCC(OC(=O)Nc2ccccc2-c2ccccc2)CC1)C(=O)c1cccc(C(=O)NCCNCc2ccc(O)cc2)c1 [crystalline dipropionate salt] | less than 11% | – | –
CN(CCN1CCC(OC(=O)Nc2ccccc2-c2ccccc2)CC1)C(=O)c1cccc(C(=O)NCCNCc2ccc(O)cc2)c1 [crystalline freebase (Form I), Crystalline Freebase Biphenyl-2-ylcarbamic Acid 1-[2-({3-[2-(4-Hydroxybenzylamino)ethylcarbamoyl]benzoyl}methylamino)ethyl]piperidin-4-yl Ester (Form I)] | – | ≥ 95 | –
CN(CCN1CCC(OC(=O)Nc2ccccc2-c2ccccc2)CC1)C(=O)c1cccc(C(=O)NCCNCc2ccc(O)cc2)c1 [crystalline freebase (Form II), Crystalline Freebase Biphenyl-2-ylcarbamic Acid 1-[2-({3-[2-(4-Hydroxybenzylamino)ethylcarbamoyl]benzoyl}methylamino)ethyl]piperidin-4-yl Ester (Form II)] | – | ≥ 110 | –
CN(CCN1CCC(OC(=O)Nc2ccccc2-c2ccccc2)CC1)C(=O)c1cccc(C(=O)NCCNCc2ccc(O)cc2)c1.CN(CCN1CCC(OC(=O)Nc2ccccc2-c2ccccc2)CC1)C(=O)c1cccc(C(=O)NCCNCc2ccc(O)cc2)c1.O=S(=O)(O)CCS(=O)(=O)O [crystalline hemiedisylate salt, Crystalline Hemiedisylate Salt of Biphenyl-2-ylcarbamic Acid 1-[2-({3-[2-(4-Hydroxybenzylamino)ethylcarbamoyl]benzoyl}methylamino)ethyl]piperidin-4-yl Ester] | less than 4% | ≥ 190 | level of hygroscopicity [1]: moderate and low; deliquescence [1]: not deliquescent
CN(CCN1CCC(OC(=O)Nc2ccccc2-c2ccccc2)CC1)C(=O)c1cccc(C(=O)NCCNCc2ccc(O)cc2)c1.CN(CCN1CCC(OC(=O)Nc2ccccc2-c2ccccc2)CC1)C(=O)c1cccc(C(=O)NCCNCc2ccc(O)cc2)c1.O=S(=O)(O)c1cccc2c(S(=O)(=O)O)cccc12 [crystalline heminapadisylate salt, Crystalline Heminapadisylate Salt of Biphenyl-2-ylcarbamic Acid 1-[2-({3-[2-(4-Hydroxybenzylamino)ethylcarbamoyl]benzoyl}methylamino)ethyl]piperidin-4-yl Ester] | less than 2% | ≥ 220 | degradation of inhalation solution after storage [3]: Less than 0.5%; chemical degradation by HPLC after storage [4]: less than 0.5%; weight gain in the humidity range of 40-75% RH ([1]; 40-75% RH): 0.46%; level of hygroscopicity [1]: low; deliquescence [1]: not deliquescent
CN(CCN1CCC(OC(=O)Nc2ccccc2-c2ccccc2)CC1)C(=O)c1cccc(C(=O)NCCNCc2ccc(O)cc2)c1 [crystalline monooxalate salt] | less than 14% | – | –
